Laboratory results published in patent publication US10086108B2, “Hydrogels and use thereof in anastomosis procedures” (The United States of America, as represented by the …, priority 2015, dated 2018).

Tests used:
Format in all cases: physicochemical
[1] = UV photolysis of the indoline cage followed by absorbance at 248 nm; details: absorbance at 248 nm during irradiation
Description: FIGS. 6A and 6B test that assertion by following the fate of both the 4-methoxy-7-nitroindoline (MNI) group as well as the caged peptide during photolysis. In FIG. 6A, the absorbance of APC1 at 248 nm is followed as a function of time during irradiation. Absorbance at this wavelength is mainly due to the intact indoline cage. […] In FIG. 6B, photolysis of the caged peptide is followed by RP-HPLC. […] Mass spectroscopy was used to confirm the identity of both species.

[2] = Oscillatory rheology of peptide hydrogels (formation, shear-thin/recovery, UV photodisruption); details: for Storage modulus (G′) of formed gel, regime I time sweep: 1% w/v peptide, pH 7.4, 6 rad/s, 0.2% strain, APC1 after 30 minutes; for Onset of gelation after triggering: regime I
Description: Oscillatory rheology was employed to study the rheological behavior of each gel under experimental conditions that mimic its use during the anastomosis procedure. Here, the storage modulus (G′), a measure of the gels' mechanical rigidity, is monitored in the rheometer under environmental conditions that mimic: (1) the initial (sol-gel) formation of the hydrogel in the syringe; (2) shear thinning of the material as it passes through the syringe needle during injection with subsequent hydrogel recovery in the vessel lumen; and (3) the disruption of the gel network (gel-sol) by UV photolysis after suturing. Monitoring gel behavior in a rheometer, although not exactly capturing the gel's response during the actual anastomosis procedure, allows quantitative and reproducible measurement of gel mechanical properties under highly controlled conditions. […] In regime I, the rate of hydrogel formation (sol-gel) is assessed in a time-sweep experiment that monitors the evolution of G′ after peptide folding and assembly is triggered for a 1% w/v solution of peptide. […] After completion of the initial time sweep, 1000% strain is applied to the material for 30 seconds in regime II to mimic syringe delivery of the gel. This application of strain results in an immediate decrease in G′ indicative of shear thinning that results in a viscous gel capable of flow. After the 30 seconds, the applied strain is decreased to 0.2% and the material is allowed to recover. […] Lastly, using an optically clear parallel plate in the rheometer, the recovered hydrogel is subjected to irradiation by UV light (365 nm) for the first 10 minutes of regime III, where the effect of photolysis on the storage modulus is monitored over time. […] Importantly, irradiation by UV rapidly disrupts the gel network affording a viscous material, which should be capable of dissolution when exposed to the shear of blood flow. Independent frequency- and strain-sweep measurements were also performed as shown in FIGS. 14A-14B and FIGS. 15A-15B.
Application of 1000% strain in the first 30 sec. of regime II quickly thins the APC2 gel. However, the resulting viscous material is unable to self-heal effectively and recovers only about 5% of its original mechanical rigidity. Finally, irradiation in regime III disrupts the weakly recovered gel. Although APC2 is initially able to form a very rigid gel, its inability to recover after being shear thinned precludes it use in the anastomosis procedure. […] Here, incorporation of the cage near the strand termini of the hairpin hampers the ability of the network to recover. Based on this rheological assessment, the APC1 gel was chosen for further study.
Oscillatory Rheology. Rheology experiments were performed on an AR-G2 Rheometer (TA Instruments, DE) equipped with a 25 mm stainless steel parallel plate geometry using a 0.5 mm gap height. A 2 wt % peptide solution was prepared by dissolving lyophilized peptide in water and chilling on ice. An equal volume of chilled 100 mM BTP, 300 mM NaCl, pH 7.4 buffer was added and gently mixed, then immediately transferred to the rheometer plate equilibrated at 5° C. In separate experiments, APC1 gels were prepared in syringe, or as a preformed slab, and incubated for 1 hour at 37° C. Gels were then shear-thinned delivered, or transferred as an intact gel slab, to the rheometer plate, respectively. A temperature ramp from 5° C. to the desired temperature (25° C. or 37° C.) over 100 seconds was performed, followed by a 60 minute dynamic time sweep using an angular frequency of 6 rads and application of 0.2% strain to monitor the storage (G′) and loss (G″) modulus of the hydrogel. The resulting hydrogel was further evaluated by performing a frequency sweep from 0.1 to 100 rads and a strain sweep at 6 rads from 0.1% to 1000% strain. Oil was placed around the sample and on the plate to prevent evaporation. […]

[3] = Circular dichroism spectroscopy of peptide folding and assembly; details: for Folding state by CD under gelation conditions / Folding state by CD in water: 1% w/v; for Folding state by CD under gelation conditions: pH 7.4, 150 mM NaCl, 25 or 37° C.; for Folding state by CD in water: 5° C.; for Temperature needed to induce folding and assembly: pH 7.4 buffer with NaCl, ellipticity at 216 nm vs temperature
Experimental: The ability of APC1 and APC2 to fold and associate into β-sheet rich assemblies was monitored using circular dichroism (CD) spectroscopy. In water at 5° C., the CD spectra of 1% w/v solutions of APC1 and APC2 indicate that the peptides are unfolded under these conditions (FIG. 4A). […] The NaCl screens the lysine point charges and increasing the temperature drives the hydrophobic effect, both of which favor folding and assembly. The exact temperatures needed to induce folding and assembly of each peptide were determined by monitoring the mean ellipticity at 216 nm as a function of temperature as shown in FIG. 13. In all the CD experiments, self-supporting hydrogels of both peptides (pH 7.4, 150 mM NaCl) form directly in the cuvette after folding is triggered. The same procedure can be used to form the gels directly in a syringe. […] Also evident in the spectra are absorptions due to the indoline cage, which occur in the near UV-CD (240-380 nm). […] However, when the peptides fold and assemble, the indoline ring is placed into a chiral environment, such as that provided by the fibril's hydrophobic interior. […] Importantly, it also supports the assertion that if the glutamate's negative point-charge were to be unmasked when the peptides are in the folded and assembled fibrillar state, that this event should be disruptive.
Circular Dichroism (CD). CD spectra of peptide hydrogels were collected on an AVIV 410 spectropolarimeter (AVIV Biomedical Inc., NJ). For wavelength spectra of APC1 and APC2 in water, a 1 wt % solution of peptide was prepared by dissolving lyophilized peptide in water at 5° C. The peptide solution was transferred to a 0.1 mm path length cylindrical cell and placed in the spectrometer sample holder equilibrated at 5° C. For temperature-dependent folding of 1 wt % hydrogels, a 2 wt % peptide solution was first prepared by dissolving lyophilized peptide in water and chilling on ice. Then, an equal volume of chilled 100 mM BTP, 300 mM NaCl, pH 7.4 buffer was added, gently mixed, and quickly transferred to a 0.1 mm path length cylindrical cell and placed in the spectrometer sample holder equilibrated at 5° C. The CD spectra were collected from 200-260 nm or 200-400 nm as a function of temperature at 5 degree increments from 5-80° C. with 10 min equilibration at each temperature. For UV photolysis of 1% w/v hydrogels, the solution was prepared in a manner identical to the folding studies and placed in the spectrometer at 25° C. or 37° C. for 30 minutes. The hydrogel within the cylindrical cell was irradiated for the specified time interval, followed by recording the mean residue ellipticity at 216 nm. For APC1, irradiation and spectra were obtained at 10 second intervals for the first 60 seconds, then at 1 minute intervals for a total of 5 minutes. For APC2, irradiation and spectra were obtained at 1 minute intervals for a total of 15 minutes. At the final time point, a wavelength spectrum from 200-400 nm of each peptide was obtained. Peptide concentration was determined by UV spectroscopy using ε220nm=16448 M^−1cm^−1 for cAPC1 and cAPC2 and ε220nm=31144 M^−1cm^−1 for APC1 and APC2. The mean residue ellipticity [θ] was calculated from [θ]=(θobs/10 lc)/r, where θobs is the measured ellipticity in degrees, l is the path length in centimeters, c is the concentration in molar, and r is the number of residues in the sequence. Each CD spectra shown is representative of three individual experiments, where each data point represents the average of 30 measurements, with a variance in ellipticity of 0.2 millidegrees at each wavelength.

Ac-VKVKVKGKV^DPPTKZEVKVKV-NH2 [APC1]
Irradiation time to almost complete photolysis of the indoline cage [1]: 90 s
Storage modulus (G′) of formed gel, regime I time sweep [2]: ~2,500 Pa
Onset of gelation after triggering ([2]; 1% w/v): within the first few minutes
Storage modulus (G′) after UV irradiation, regime III ([2]; 365 nm, 10 minutes, recovered 1% w/v gel): ~180 Pa
Storage modulus (G′) recovered after shear thinning ([2]; 1000% strain for 30 seconds, then 0.2% strain, 1% w/v): 1900 Pa
Folding state by CD under gelation conditions [3]: β-sheet secondary structure
Folding state by CD in water [3]: unfolded
Temperature needed to induce folding and assembly [3]: 25 °C

VKVKGKVKV^DPPTKVEZKVKV [APC2]
Storage modulus (G′) of formed gel, regime I time sweep [2]: 20,000 Pa
Onset of gelation after triggering ([2]; 1% w/v): significant lag phase
Folding state by CD under gelation conditions [3]: β-sheet secondary structure
Folding state by CD in water [3]: unfolded
Temperature needed to induce folding and assembly [3]: 37 °C
